The results in this text go back to patent US20150139959A1 (priority 2009, published 2015).

The subject of data set [1] is 3T3 mouse fibroblasts. The format is cell-based.
Data set [2] has as its system Caco-2 cells. The class given is cell-based, Human.
Data set [3] can be described thus: 14-day daily gavage toxicity study, body and organ weights. As to conditions: for Feed efficacy (Body weight gain/Food Consumption) / Final body weight: 14 days.

Turning to `CC1=C[C@H]2O[C@@H]3[C@H](O)C[C@](C)([C@@]2(CO)[C@H](O)C1=O)[C@]31CO1` [3-epi-DON], the “BrdU bioassay IC50 (95% Confidence Interval)” value in data set [1] is on record as 281 (156, 505) μg/mL. For the same molecule, the “MTT bioassay IC50 (95% Confidence Interval)” value in data set [2] is 146 (100, 212) μg/mL. In data set [3] (25 mg/kg bw), the “Food Consumption during the 14 days” value was 85.860 g, the “Feed efficacy (Body weight gain/Food Consumption)” value is 0.0475 and the Final body weight was 21.390 g. In addition, in data set [3] (100 mg/kg bw), the “Food Consumption during the 14 days” value worked out at 85.760 g, the “Feed efficacy (Body weight gain/Food Consumption)” value came to 0.0413 and the Final body weight is 21.680 g.

With `CC1=C[C@H]2O[C@@H]3[C@H](O)C[C@](C)([C@@]2(CO)[C@H](O)C1=O)[C@]31CO1` [DON, Deoxynivalenol, reference compound], in data set [1], the “BrdU bioassay IC50 (95% Confidence Interval)” value is listed as 0.238 (0.162, 0.349) μg/mL. For the same molecule, the “MTT bioassay IC50 (95% Confidence Interval)” value in data set [2] is on record as 0.409 (0.324, 0.518) μg/mL. In data set [3] (2 mg/kg bw), the “Food Consumption during the 14 days” value worked out at 81.090 g and the “Feed efficacy (Body weight gain/Food Consumption)” value is recorded as 0.0252.
